Measured values taken from patent US10227331B2 (priority 2015, dated 2019).

Assays:
IMP-1 = IMP-1 (Serratia marcescens, UniProt P52699); assay: biochemical; type: biochemical; conditions: CCF2-FA substrate, 2 hours at 25° C; read-out: IMP-1 IC50
In short: (§1)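 Class B activity is measured in the presence of compound by fluorescence with CCF2-FA after a 2-hour incubation at 25° C. IC50 is taken from a 4-parameter fit of semi-logarithmic dose-response data.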

NDM-1 = NDM-1 (Klebsiella pneumoniae, UniProt C7C422); assay: biochemical; type: biochemical; conditions: CCF2-FA substrate, 2 hours at 25° C; read-out: NDM-1 IC50
NDM-1, sequence (C7C422 whole entry, looked up, species assumed): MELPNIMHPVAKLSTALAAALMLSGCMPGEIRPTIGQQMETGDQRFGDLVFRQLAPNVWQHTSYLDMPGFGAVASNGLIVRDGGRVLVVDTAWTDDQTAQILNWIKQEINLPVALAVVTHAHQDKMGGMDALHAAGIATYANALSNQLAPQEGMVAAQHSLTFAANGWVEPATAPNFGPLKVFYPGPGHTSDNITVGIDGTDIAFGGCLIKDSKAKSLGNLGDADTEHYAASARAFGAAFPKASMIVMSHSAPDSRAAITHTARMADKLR
In short: as §1

VIM-1 = VIM-1 (Pseudomonas aeruginosa (strain ATCC 15692 / DSM 22644 / CIP 104116 / JCM 14847 / LMG 12228 / 1C / PRS 101 / PAO1), UniProt A0A0F7KYQ8); assay: biochemical; conditions: CCF2-FA substrate, 2 hours at 25° C
In short: as §1

[1] = tested on: Escherichia coli expressing NDM-1 (CLB30005, CLB30016); type: cell-based; conditions: NDM-1 (CLB30016), with imipenem 1 μg/ml, 95% inhibition of bacterial growth
In short: (§2)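 Clinical strains grown overnight on blood agar, then diluted 1:100 in 1.1× CAMHB and exposed to test compound with imipenem at 1 μg/ml. Incubation was 22–24 h at 35° C; growth was read by absorbance to find the compound concentration restoring imipenem susceptibility.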

[2] = tested on: Klebsiella pneumoniae expressing VIM-1 (IHMA599644); type: cell-based; conditions: VIM-1 (IHMA599644), with imipenem 1 μg/ml, 95% inhibition of bacterial growth
In short: as §2

[3] = tested on: Serratia marcescens expressing IMP-1 (CL5741); type: cell-based; conditions: IMP-1 (CL5741), with imipenem 1 μg/ml, 95% inhibition of bacterial growth
In short: as §2

[4] = tested on: P. aeruginosa expressing IMP-1, efflux+ (MB9798); type: cell-based, Pseudomonas aeruginosa; conditions: for P. aeruginosa expressing IMP-1, efflux+ (MB9798) MITC95: imipenem at 2 μg/mL, in the presence of a class A, C, D serine β-lactamase inhibitor closely related to relebactam; for Efflux ratio: ratio MITC95 PA_9798/MITC95 PA_9799
Source text: (§3) The strain background is Pseudomonas aeruginosa PAO1.

[5] = tested on: P. aeruginosa expressing IMP-1, efflux− (MB9799); assay: Efflux: concentration of MBL inhibitor which restores susceptibility to imipenem; type: cell-based, Pseudomonas aeruginosa; conditions: imipenem at 2 μg/mL, in the presence of a class A, C, D serine β-lactamase inhibitor closely related to relebactam
Source text: as §3

IMP-1, sequence (P52699 whole entry, looked up, species assumed): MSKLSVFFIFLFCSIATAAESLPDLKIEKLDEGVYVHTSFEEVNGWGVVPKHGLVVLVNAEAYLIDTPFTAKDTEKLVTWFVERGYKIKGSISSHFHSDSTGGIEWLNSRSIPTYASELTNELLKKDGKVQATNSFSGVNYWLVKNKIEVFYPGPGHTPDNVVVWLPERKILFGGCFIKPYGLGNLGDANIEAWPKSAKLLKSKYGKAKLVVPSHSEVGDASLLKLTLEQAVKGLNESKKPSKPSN

| SMILES | IC50 (IMP-1) | IC50 (NDM-1) | IC50 (VIM-1) | Escherichia coli MITC95 [1] | Klebsiella pneumoniae MITC95 [2] | Serratia marcescens MITC95 [3] | P. aeruginosa expressing IMP-1, efflux+ (MB9798) MITC95 [4] | Efflux ratio [4] | P. aeruginosa expressing IMP-1, efflux− (MB9799) MITC95 [5] |
| --- | --- | --- | --- | --- | --- | --- | --- | --- | --- |
| Nc1nc2c(-c3ccc(S(=O)(=O)C[C@@H](N)CO)c(S(N)(=O)=O)c3-c3nn[nH]n3)cccc2[nH]1 [Example 274, 3-(2-amino-1H-benzo[d]imidazol-4-yl)-6-((S)-2-amino-3-hydroxypropylsulfonyl)-2-(2H-tetrazol-5-yl)benzenesulfonamide] | 431 pM | 113 pM | 206 pM | 0.7813 µM | 1.563 µM | 1.563 µM | 0.7813 µM | 1.00 | 0.7813 µM |
| C[C@@H](N)CS(=O)(=O)c1ccc(-c2cccc3c2nc(N)n3C)c(-c2nn[nH]n2)c1S(N)(=O)=O [Example 275, 3-(2-amino-1-methyl-1H-benzo[d]imidazol-4-yl)-6-((R)-2-aminopropylsulfonyl)-2-(2H-tetrazol-5-yl)benzenesulfonamide] | 840 pM | 582 pM | 696 pM | 0.5 µM | 1.781 µM | 0.8906 µM | 2.563 µM | 2.88 | 0.8906 µM |
| C[C@H](N)CS(=O)(=O)c1ccc(-c2cccc3c2nc(N)n3C)c(-c2nn[nH]n2)c1S(N)(=O)=O [Example 276, 3-(2-amino-1-methyl-1H-benzo[d]imidazol-4-yl)-6-((S)-2-aminopropylsulfonyl)-2-(2H-tetrazol-5-yl)benzenesulfonamide] | 285 pM | 240 pM | 214 pM | 0.7813 µM | 3.125 µM | 0.7813 µM | 1.563 µM | 2.00 | 0.7813 µM |
| C[C@H](CN)S(=O)(=O)c1ccc(-c2cccc3nc(N)[nH]c23)c(-c2nn[nH]n2)c1S(N)(=O)=O [Example 277, 3-(2-amino-3H-benzo[d]imidazol-4-yl)-6-((R)-1-aminopropan-2-ylsulfonyl)-2-(2H-tetrazol-5-yl)benzenesulfonamide] | 1370 pM | 527 pM | 362 pM | 0.3906 µM | 1.563 µM | 0.7813 µM | 1.563 µM | 2.00 | 0.7813 µM |
| C[C@H](CN)S(=O)(=O)c1ccc(-c2cccc3c2nc(N)n3C)c(-c2nn[nH]n2)c1S(N)(=O)=O [Example 279, 3-(2-amino-1-methyl-1H-benzo[d]imidazol-4-yl)-6-((R)-1-aminopropan-2-ylsulfonyl)-2-(2H-tetrazol-5-yl)benzenesulfonamide] | 695 pM | 806 pM | 470 pM | 0.3906 µM | 1.563 µM | 1.563 µM | 3.125 µM | 4.00 | 0.7813 µM |
| C[C@@H](CN)S(=O)(=O)c1ccc(-c2cccc3c2nc(N)n3C)c(-c2nn[nH]n2)c1S(N)(=O)=O [Example 280, 3-(2-amino-1-methyl-1H-benzo[d]imidazol-4-yl)-6-((S)-1-aminopropan-2-ylsulfonyl)-2-(2H-tetrazol-5-yl)benzenesulfonamide] | 954 pM | 224 pM | 445 pM | 0.3906 µM | 1.563 µM | 0.7813 µM | 3.125 µM | 4.00 | 0.7813 µM |
| NC[C@H](O)CS(=O)(=O)c1ccc(-c2cccc3[nH]c(N)nc23)c(-c2nn[nH]n2)c1S(N)(=O)=O [Example 282, 3-(2-amino-1H-benzo[d]imidazol-4-yl)-6-((S)-3-amino-2-hydroxypropylsulfonyl)-2-(2H-tetrazol-5-yl)benzenesulfonamide] | 777 pM | 157 pM | 280 pM | 0.3438 µM | 0.8359 µM | 0.5156 µM | 0.418 µM | 1.00 | 0.418 µM |
| CCn1c(N)nc2c(-c3ccc(S(=O)(=O)C4CNC4)c(S(N)(=O)=O)c3-c3nn[nH]n3)cccc21 [Example 283, 3-(2-amino-1-ethyl-1H-benzo[d]imidazol-4-yl)-6-(azetidin-3-ylsulfonyl)-2-(2H-tetrazol-5-yl)benzenesulfonamide] | 496 pM | 116 pM | 348 pM | 0.3906 µM | 1.563 µM | 1.563 µM | 6.25 µM | 4.00 | 1.563 µM |
| CCn1c(N)nc2c(-c3ccc(S(=O)(=O)CCN)c(S(N)(=O)=O)c3-c3nn[nH]n3)cccc21 [Example 284, 3-(2-amino-1-ethyl-1H-benzo[d]imidazol-4-yl)-6-(2-aminoethylsulfonyl)-2-(2H-tetrazol-5-yl)benzenesulfonamide] | 327 pM | 289 pM | 507 pM | 0.3906 µM | 1.563 µM | 1.563 µM | 3.125 µM | 4.00 | 0.7813 µM |
| C[C@H](CN)S(=O)(=O)c1ccc(-c2cccc3sc(N)nc23)c(-c2nn[nH]n2)c1S(N)(=O)=O [Example 285, 3-(2-aminobenzo[d]thiazol-4-yl)-6-((R)-1-aminopropan-2-ylsulfonyl)-2-(2H-tetrazol-5-yl)benzenesulfonamide] | 534 pM | 370 pM | 364 pM | 3.125 µM | 1.563 µM | 1.563 µM | 3.125 µM | 4.00 | 0.7813 µM |
| C[C@@H](CN)S(=O)(=O)c1ccc(-c2cccc3sc(N)nc23)c(-c2nn[nH]n2)c1S(N)(=O)=O [Example 286, 3-(2-aminobenzo[d]thiazol-4-yl)-6-((S)-1-aminopropan-2-ylsulfonyl)-2-(2H-tetrazol-5-yl)benzenesulfonamide] | 323 pM | 93.4 pM | 265 pM | 0.7813 µM | 1.563 µM | 0.7813 µM | 1.563 µM | 2.00 | 0.7813 µM |
| Nc1c(-c2ccc(S(=O)(=O)C3CNC3)c(S(N)(=O)=O)c2-c2nn[nH]n2)cccc1S(N)(=O)=O [Example 287, 2′-amino-4-(azetidin-3-ylsulfonyl)-2-(2H-tetrazol-5-yl)biphenyl-3,3′-disulfonamide] | 2920 pM | 386 pM | 607 pM | 3.125 µM | 3.125 µM | 3.125 µM | 6.25 µM | 2.00 | 3.125 µM |
| NCCNC(=O)c1cccc(-c2ccc(S(=O)(=O)C3CNC3)c(S(N)(=O)=O)c2-c2nn[nH]n2)c1N [Example 288, 2-amino-N-(2-aminoethyl)-4′-(azetidin-3-ylsulfonyl)-5′-sulfamoyl-6′-(2H-tetrazol-5-yl)biphenyl-3-carboxamide] | 9830 pM | 1670 pM | 861 pM | 3.125 µM | 1.563 µM | 3.125 µM | 3.125 µM | 4.00 | 0.7813 µM |
